Converted amounts (≈) assume the structure as drawn. Read-outs that look alike come from different tables or passages of the source.
Columns and labels:
Aedes aegypti = assay: Topical toxicity bioassay on adult females; type: in vivo; details: for signs of intoxication: DEET lethal doses, propoxur 1 ng/insect, five minutes after treatment; for LD50 (95% CI): topical application, ng of compound/mg body weight, 24 hr
Method: (§1) Topical toxicity bioassays on adult female mosquitoes were performed based on the method of Pridgeon et al.. Briefly, insects were chilled on ice for 3 min, during which the appropriate volume (200 nL for mosquitoes, 1 µL for Musca) of chemical (dissolved in 95% ethanol) was applied onto the abdomen using a handheld Hamilton microapplicator. For each inhibitor, five doses were applied to groups of ten insects each and repeated three times. An ethanol-only treatment was included in each experiment as a negative control. Insects were transferred into a holding chamber post-treatment and supplied with free access to sugar water for the duration of the experiment. […] Three LD50 values were obtained and the mean LD50 value was calculated and used for statistical analysis.
(§2) For all toxicity assays, control mortality was corrected for using Abbots formula [19]; where corrected percent mortality = (% alive in control–% alive in treated) /% alive in control.

[1] = biological target: T1, AKRON AgAChE (G119S AChE mutation) (Anopheles gambiae, UniProt Q869C3, G280S); assay: AChE inhibition, Ellman assay; type: biochemical
T1 construct: Homogenate enzymes were prepared from groups of ten non-blood fed adult female mosquitoes; from tissue; host or cells: whole adult female mosquitoes, AKRON strain, supernatant of homogenate
From the text: (§3) In vitro biochemical assays utilized five acetylcholinesterase (AChE) enzymes. Recombinant human AChE (hAChE) was purchased from a commercial source (lyophilized powder, Sigma C1682, St. Louis, MO, USA). Homogenates to prepare Anopheles gambiae AChE (AgAChE) were obtained from the wild type G3 strain and the resistant AKRON strain (BEI Resources; http://www.beiresources.org/). AKRON mosquitoes (from Benin and donated by M. Akogbeto) have both knockdown resistance (kdr) to pyrethroids (L1014F sodium channel mutation) and the G119S AChE mutation (ace-1R), which confers resistance to carbamates, [15]. Both strains were cultured in the Emerging Pathogens Institute, University of Florida, Gainesville, FL, USA from eggs provided by the Center for Disease Control, Atlanta, GA, USA. Homogenates were also used to prepare Aedes aegypti AChE (AeAChE) from mosquitoes provided by the CMAVE, USDA-ARS, Gainesville, FL, USA; Musca domestica AChE (MdAChE) from flies cultured in the Department of Entomology and Nematology, Medical Entomology Laboratory, University of Florida, Gainesville, FL, USA); and Drosophila melanogaster AChE (DmAChE) from flies (Oregon-R strain) cultured in the Emerging Pathogens Institute, University of Florida, Gainesville, FL, USA. Homogenate enzymes were prepared from groups of ten non-blood fed adult female mosquitoes, five whole bodied Drosophila, or three Musca heads homogenized in 1 mL of ice-cold sodium phosphate buffer (0.1 M sodium phosphate, pH 7.8) with an electric motor driven glass tissue homogenizer. The homogenate was centrifuged at 5000×g using a Sorvall Fresco refrigerated centrifuge at 4 °C for 5 minutes. The supernatant was used as the enzyme source, and all enzyme preparations contained 0.3% (v/v) triton X-100 and 1 mg/ml BSA. Prior to use, the recombinant human enzyme was diluted 500-fold into sodium phosphate buffer containing triton X-100 and 1 mg/ml BSA.
(§4) Inhibition of AChE was determined using the Ellman assay and was based on the method outlined in Carlier et al.. Briefly, enzyme solution (10 µL) was added to each well of a 96-well micro assay plate, along with 20 µL of inhibitor in DMSO/saline suspension, and 150 µL of sodium phosphate buffer. Final concentration of DMSO was 0.1% in all incubations. The plate was incubated at 25 °C for ten minutes. Ellman assay reagents, acetylthiocholine iodide (0.4 mM, final concentration) and 5,5′-dithiobis-(2-nitro)benzoic acid (0.3 mM, final concentration), were prepared fresh and 20 µL was added to the enzyme to initiate the reaction. Changes in absorbance were recorded by a DYNEX Triad spectrophotometer (DYNEX Technologies, Chantilly, VA, USA) at 405 nm. Enzyme concentrations used were within the linear range, therefore eliminating the need for protein quantification.

[2] = biological target: Musca domestica AChE (MdAChE) (Musca domestica, UniProt Q7YWJ9); assay: AChE inhibition, Ellman assay; type: biochemical
From the text: as §3, §4

[3] = biological target: T2, Recombinant human AChE (hAChE) (Homo sapiens, UniProt P22303); assay: AChE inhibition, Ellman assay; type: biochemical; details: mean, n = 3; read-out: IC50 (95% CI)
T2 construct: purchased Sigma C1682
From the text: as §3, §4

[4] = tested on: octopamine receptors of Sf21 cells; assay: Calcium fluorescence assay in Sf21 cells; type: cell-based; details: 100 µM
Method: The Sf21 insect cell line was obtained from a commercial supplier (Invitrogen, Carlsbad, CA, USA) and maintained in log phase culture in Trichoplusia ni Medium-Formulation Hink (TNM-FH) from Sigma-Aldrich (St. Louis, MO, USA), supplemented with 10% fetal bovine serum and 100 U/ml penicillin and streptomycin (Sigma-Aldrich). Cells were cultured in a non-humidified environment and maintained at 27°C. Sf21 cells were passaged every 3–5 days according to manufacturer's instructions, and maintained for about 30 passes before being replaced by fresh cells.
Sf21 cells were plated into 96-well black-wall, clear bottom plates 24 h before calcium fluorescence assay. […] The octopamine receptor antagonist phentolamine (100 µM) was co-incubated with cells for 1 h before drug challenge. Phentolamine, octopamine, and DEET were dissolved in water, while propoxur was dissolved in 100% DMSO to make a stock solution, and in the assay, DMSO was kept to 0.1%. The experiment was repeated in triplicate with different plates of cells to obtain means and SEMs for each experimental condition.

[5] = tested on: Anopheles gambiae G3 (susceptible); assay: WHO filter paper contact toxicity bioassay; type: in vivo; details: WHO filter paper assay, 1 h exposure, mortality at 24 h, read-out: LC50 (95% CI)
Method: Contact toxicity bioassays were performed on both strains of Anopheles gambiae, G3 (susceptible) and AKRON (pyrethroid and anticholinesterase resistance) according to WHO protocol. Adult female mosquitoes were 2–5 days of age and non-blood fed at the time of experimentation. Five concentrations of inhibitor dissolved in ethanol were prepared and treated by applying 2 mL of each concentration on a 180 cm^2 (12 cm×15 cm) paper. Papers were left to dry for 24 hours prior to use. Mosquitoes were chilled for three minutes on ice, after which 25 females were placed in the WHO kit holding chamber to recover for one hour. Mosquitoes were then moved to the treatment chamber, which contain the treated paper, and exposed for one hour. After the one-hour exposure, the mosquitoes were transferred back to the holding chamber and maintained on 10% sugar solution for 24 hrs. Each concentration was repeated in triplicate. […] Three LC50 values were obtained and the mean LC50 value was used for statistical analysis.
as §2

M. domestica = assay: Topical toxicity bioassay; type: in vivo, Musca domestica
Method: as §1, §2

[6] = tested on: housefly larval central nervous system; assay: Neurophysiological recordings of CNS nerve discharge in housefly larvae; details: Musca domestica; intact CNS; value (95% CI); read-out: EC50, excitation of nerve firing
[7] = tested on: DmAChE, human AChE and butyrylcholinesterase; set-up: method as in PMID 19656357; details: cited from earlier work

Compound	signs of intoxication (Aedes aegypti)	LD50 (95% CI) (Aedes aegypti)	IC50 [1]	fold more potent than the IC50 value of DEET to MdAChE ([2]; mean IC50)	IC50 ([2]; read-out: IC50 (95% CI); mean, n = 3)	IC50 [3]	effect on calcium fluorescence in words [4]	LC50 [5]	LD50 (95% CI) (M. domestica; topical application, 24 hr)	signs of intoxication (M. domestica; toxicologically equivalent doses)	IC50 ([2]; mean, n = 3; read-out: IC50 (95% CI))	increase in calcium fluorescence ([4]; over control cells)	EC50 [6]	concentrations showing inhibitory effects [7]
CNC(=O)Oc1ccccc1OC(C)C [propoxur]	intense hyperexcitation in the absence of any physical stimulation	1.4 (95% CI: 0.9–2.1) ng/mg	> 100 µM	40,000 fold	0.13 µM	1.44 µM	no effect	–	–	–	–	–	–	–
CCN(CC)C(=O)c1cccc(C)c1 [DEET, N, N-diethyl-meta-toluamide]	both hyperexcitatory and lethargic tendencies	1102 (836–1367)a ng/mg	> 10000 µM	–	–	12000 µM	–	1900 µg/mL (≈ 9.93 mM)	8104 (7026–9000)c ng/mg	mostly lethargic with only occasional bouts of excitation	6000 µM	ca. 30%	210 µM	0.1 to 10 mM

Reference: PMC4125160, “Neurotoxicity and Mode of Action of N, N-Diethyl-Meta-Toluamide (DEET)” (PLoS ONE, 2014)
